Measured values as given in patent US20120040906A1, “PROTEIN TARGETS IN DISEASE” (NATIONAL UNIVERSITY OF IRELAND, GALWAY, priority 2009, published 2012).

Legend:
[1] = system: H9c2 cardiomyocytes; test: microarray analysis of microRNA expression during ER stress; assay type: cell-based, Rat; settings: Tg 1 μM or Tm 1 μg/ml, 24 hours, untreated control = 1.000
Procedure: (§1) Expression profiling of microRNAs during the conditions of Endoplasmic Reticulum (ER) stress in cardiomyocytes was performed. ER stress was induced by treatment with either thapsigargin, an inhibitor of the Sacroplasmic/Endoplasmic Reticulum Ca2+ATPase (SERCA) pump or tunicamycin (an inhibitor of N-linked glycosylation). RNA was isolated from three independent experiments where H9c2 cells were treated with thapsigargin (Tg) or tunicamycin (Tm) for 24 hours. RNAs from Tg and Tm treated cells were checked for induction of key ER resident chaperone Grp78/BiP by RT-PCR. Grp78/BiP is a central regulator of ER homeostasis due to its multiple functional roles in protein folding, ER calcium binding, and controlling of the activation of transmembrane ER stress sensors. […] Total RNA was isolated from H9c2 cells treated with 1 μM Tg, 1 μg/ml Tm for 24 hr and the expression levels of the indicated genes were analysed by RT-PCR.
Next equal amounts of RNAs from each experiment were pooled and used for microarray analysis to minimize experimental variations. The experimental outline for the microarray analysis is illustrated in FIG. 2. The chips were spotted with 350 mature microRNAs of Rat as per Sanger miRBase database (Release 11.0). Each microRNA was spotted on the array nine times and for each RNA sample two chips were used. There were 16 sets of control probes on each array. There were greater than 10 positive controls (spike-in controls & 5S). There were greater than 10 negative controls (mismatch control). A 20-mer control RNA is spiked into each sample followed by labeling and hybridization. The control RNA had been computationally and experimentally verified not to cross-hybridize with the probes of any known microRNA transcript. The background-subtracted signals were used for statistical tests and clustering analysis.
(§2) Control, Untreated; Tg, thapsigargin (1 μM) for 24 hours, Tm, tunicamycin (1 μg/ml) for 24 hours. mir-7a, mir-351 and mir-322 are shown in bold face.

[2] = system: H9c2 cells; test: RT-PCR for induction of Grp78/BiP; assay type: cell-based; settings: 1 μM Tg, 1 μg/ml Tm for 24 hr, three independent experiments
Procedure: as §1

[3] = system: H9c2 cardiomyocytes; test: real-time RT-PCR confirmation of microRNA expression during ER stress; assay type: cell-based, Rat; settings: Tg 1 μM or Tm 1 μg/ml, 24 hours; for mir-7a expression, Real-time PCR (set I) / mir-18a expression, Real-time PCR (set I) / mir-20a expression, Real-time PCR (set I) / mir-24 expression, Real-time PCR (set I) / mir-25 expression, Real-time PCR (set I) / mir-93 expression, Real-time PCR (set I) / mir-98 expression, Real-time PCR (set I) / mir-103 expression, Real-time PCR (set I) / mir-106b expression, Real-time PCR (set I) / mir-107 expression, Real-time PCR (set I) / mir-133a expression, Real-time PCR (set I) / mir-133b expression, Real-time PCR (set I) / mir-206 expression, Real-time PCR (set I) / mir-322 expression, Real-time PCR (set I) / mir-351 expression, Real-time PCR (set I): untreated control = 1.000, set I; for mir-7a expression, Real-time PCR (set II) / mir-18a expression, Real-time PCR (set II) / mir-20a expression, Real-time PCR (set II) / mir-24 expression, Real-time PCR (set II) / mir-25 expression, Real-time PCR (set II) / mir-93 expression, Real-time PCR (set II) / mir-98 expression, Real-time PCR (set II) / mir-103 expression, Real-time PCR (set II) / mir-106b expression, Real-time PCR (set II) / mir-107 expression, Real-time PCR (set II) / mir-133a expression, Real-time PCR (set II) / mir-133b expression, Real-time PCR (set II) / mir-206 expression, Real-time PCR (set II) / mir-322 expression, Real-time PCR (set II) / mir-351 expression, Real-time PCR (set II): untreated control = 1.000, set II
Excerpt: Expression of muscle specific microRNAs; mir-206, mir-133a and mir-133b and several members of mir-17-92 oncogenic cluster were repressed during conditions of ER stress. Based on their differential expression profile during ER stress and their hitherto unexplored role in cardiovascular biology mir-7a, mir-351 and mir-322 were identified as primary microRNA targets in conditions of ER stress. In addition, the invention has been extended to the human ortholog, miR-125, of rat miR-351. Similarly, the invention extends to the human ortholog, miR-424, of rat miR-322. […], and hsa-miR-424 & rno-miR-322 are microRNAs having similar seed sequences in humans and rats respectively.
as §2

## tunicamycin [Tm]
[1]
  mir-7a expression, Microarray Analysis: 2.458
  mir-18a expression, Microarray Analysis: 0.550
  mir-20a expression, Microarray Analysis: 0.791
  mir-24 expression, Microarray Analysis: 0.672
  mir-25 expression, Microarray Analysis: 0.771
  mir-93 expression, Microarray Analysis: 0.524
  mir-98 expression, Microarray Analysis: 4.921
  mir-103 expression, Microarray Analysis: 0.571
  mir-106b expression, Microarray Analysis: 0.672
  mir-107 expression, Microarray Analysis: 0.601
  mir-133a expression, Microarray Analysis: 0.690
  mir-133b expression, Microarray Analysis: 0.641
  mir-206 expression, Microarray Analysis: 0.607
  mir-322 expression, Microarray Analysis: 0.113
  mir-351 expression, Microarray Analysis: 0.179
[2]
  induction of ER resident chaperone Grp78/BiP by RT-PCR: induction of Grp78/BiP in all three experiments
[3]
  mir-7a expression, Real-time PCR (set I): 1.140
  mir-18a expression, Real-time PCR (set I): 1.090
  mir-20a expression, Real-time PCR (set I): 1.340
  mir-24 expression, Real-time PCR (set I): 0.930
  mir-25 expression, Real-time PCR (set I): 0.906
  mir-93 expression, Real-time PCR (set I): 0.800
  mir-98 expression, Real-time PCR (set I): 1.480
  mir-103 expression, Real-time PCR (set I): 0.960
  mir-106b expression, Real-time PCR (set I): 1.060
  mir-107 expression, Real-time PCR (set I): 0.590
  mir-133a expression, Real-time PCR (set I): 0.750
  mir-133b expression, Real-time PCR (set I): 0.480
  mir-206 expression, Real-time PCR (set I): 0.570
  mir-322 expression, Real-time PCR (set I): 0.840
  mir-351 expression, Real-time PCR (set I): 0.290
  mir-7a expression, Real-time PCR (set II): 1.650
  mir-18a expression, Real-time PCR (set II): 0.640
  mir-20a expression, Real-time PCR (set II): 0.650
  mir-24 expression, Real-time PCR (set II): 0.760
  mir-25 expression, Real-time PCR (set II): 0.760
  mir-93 expression, Real-time PCR (set II): 0.550
  mir-98 expression, Real-time PCR (set II): 0.750
  mir-103 expression, Real-time PCR (set II): 0.500
  mir-106b expression, Real-time PCR (set II): 0.737
  mir-107 expression, Real-time PCR (set II): 0.630
  mir-133a expression, Real-time PCR (set II): 0.730
  mir-133b expression, Real-time PCR (set II): 0.510
  mir-206 expression, Real-time PCR (set II): 0.604
  mir-322 expression, Real-time PCR (set II): 0.610
  mir-351 expression, Real-time PCR (set II): 0.230

## C/C=C(/C)C(=O)O[C@H]1C(C)=C2[C@H]([C@@H]1OC(=O)CCCCCCC)[C@@](C)(OC(C)=O)C[C@H](OC(=O)CCC)[C@@]1(O)[C@H]2OC(=O)[C@@]1(C)O [Tg, thapsigargin]
[1]
  mir-7a expression, Microarray Analysis: 1.341
  mir-18a expression, Microarray Analysis: 0.426
  mir-20a expression, Microarray Analysis: 0.770
  mir-24 expression, Microarray Analysis: 0.664
  mir-25 expression, Microarray Analysis: 0.633
  mir-93 expression, Microarray Analysis: 0.583
  mir-98 expression, Microarray Analysis: 3.822
  mir-103 expression, Microarray Analysis: 0.654
  mir-106b expression, Microarray Analysis: 0.638
  mir-107 expression, Microarray Analysis: 0.682
  mir-133a expression, Microarray Analysis: 0.595
  mir-133b expression, Microarray Analysis: 0.565
  mir-206 expression, Microarray Analysis: 0.683
  mir-322 expression, Microarray Analysis: 0.094
  mir-351 expression, Microarray Analysis: 0.141
[2]
  induction of ER resident chaperone Grp78/BiP by RT-PCR: induction of Grp78/BiP in all three experiments
[3]
  mir-7a expression, Real-time PCR (set I): 1.540
  mir-18a expression, Real-time PCR (set I): 0.720
  mir-20a expression, Real-time PCR (set I): 0.930
  mir-24 expression, Real-time PCR (set I): 0.810
  mir-25 expression, Real-time PCR (set I): 0.790
  mir-93 expression, Real-time PCR (set I): 0.660
  mir-98 expression, Real-time PCR (set I): 1.470
  mir-103 expression, Real-time PCR (set I): 0.860
  mir-106b expression, Real-time PCR (set I): 0.820
  mir-107 expression, Real-time PCR (set I): 0.580
  mir-133a expression, Real-time PCR (set I): 0.720
  mir-133b expression, Real-time PCR (set I): 0.470
  mir-206 expression, Real-time PCR (set I): 0.540
  mir-322 expression, Real-time PCR (set I): 0.830
  mir-351 expression, Real-time PCR (set I): 0.210
  mir-7a expression, Real-time PCR (set II): 3.800
  mir-18a expression, Real-time PCR (set II): 0.700
  mir-20a expression, Real-time PCR (set II): 0.620
  mir-24 expression, Real-time PCR (set II): 0.870
  mir-25 expression, Real-time PCR (set II): 0.799
  mir-93 expression, Real-time PCR (set II): 0.530
  mir-98 expression, Real-time PCR (set II): 0.850
  mir-103 expression, Real-time PCR (set II): 0.590
  mir-106b expression, Real-time PCR (set II): 0.800
  mir-107 expression, Real-time PCR (set II): 0.800
  mir-133a expression, Real-time PCR (set II): 1.140
  mir-133b expression, Real-time PCR (set II): 0.680
  mir-206 expression, Real-time PCR (set II): 0.820
  mir-322 expression, Real-time PCR (set II): 0.690
  mir-351 expression, Real-time PCR (set II): 0.210
